Results as given in US8168592B2 (Amgen Inc., priority 2005, dated 2012).

What follows are compounds tested against T1, CGRP1 receptor (human neuroblastoma cell (SK-N-MC) membrane) (Homo sapiens, UniProt O60894+Q16602) (assay: CGRP1 binding assay (125I-hαCGRP displacement)). Conditions: Table 3B.
T1 construct: human neuroblastoma cell (SK-N-MC) membrane suspension; purchased PerkinElmer; host or cells: SK-N-MC human neuroblastoma cell membranes (endogenous receptor)
T1 sequence (Q16602 23-461): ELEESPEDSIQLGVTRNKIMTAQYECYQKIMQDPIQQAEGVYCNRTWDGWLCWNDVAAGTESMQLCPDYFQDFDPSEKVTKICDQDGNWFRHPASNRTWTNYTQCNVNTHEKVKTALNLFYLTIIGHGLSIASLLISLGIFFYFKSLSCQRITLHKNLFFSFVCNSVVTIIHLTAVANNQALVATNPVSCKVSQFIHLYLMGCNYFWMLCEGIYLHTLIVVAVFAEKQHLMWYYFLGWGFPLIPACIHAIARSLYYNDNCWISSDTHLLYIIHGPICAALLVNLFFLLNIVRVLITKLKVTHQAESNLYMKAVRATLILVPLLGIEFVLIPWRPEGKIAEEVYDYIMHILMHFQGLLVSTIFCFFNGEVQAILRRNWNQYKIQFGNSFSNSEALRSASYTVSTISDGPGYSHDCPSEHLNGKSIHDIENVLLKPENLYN
T1 sequence (O60894 27-148): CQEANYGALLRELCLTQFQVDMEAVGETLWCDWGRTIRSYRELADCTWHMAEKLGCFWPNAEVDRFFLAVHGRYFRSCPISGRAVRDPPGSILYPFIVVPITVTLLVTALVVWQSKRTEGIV
Protocol: CGRP1 binding experiments. […] The plates were incubated at room temperature for 2 hour with shaking at 60 rpm, then the contents of each well were filtered over 0.5% polyethyleneimine (PEI)-treated (at least one hour) GF/C 96-well filter plates. The GF/C filter plates were washed 6 times with ice-cold 50 mM Tris, pH 7.5 and dried in an oven at 55 C for 1 hour. The bottoms of the GF/C plates were then sealed, and 40 μl Microscint™ 20 was added to each well, then the tops of the GF/C plates were sealed with TopSeal™-A, a press-on adhesive sealing film, and the GF/C plates were counted with TopCount NXT (Packard). The data were analyzed by using ActivityBase (IDBS) or Prizm (GraphPad) software.
Work on `CC(=O)NCSC[C@H](NC(=O)[C@@H](NC(=O)[C@H](C)NC(=O)[C@@H](NC(=O)[C@H](CC(=O)O)NC(=O)[C@H](CO)NC(=O)[C@H](C)N)[C@@H](C)O)[C@@H](C)O)C(=O)N[C@H](C(=O)N[C@H](C(=O)N[C@@H](Cc1c[nH]cn1)C(=O)N[C@@H](CCCNC(=N)N)C(=O)N[C@@H](CC(C)C)C(=O)N[C@@H](C)C(=O)NCC(=O)N[C@@H](CC(C)C)C(=O)N[C@@H](CC(C)C)C(=O)N[C@@H](CO)C(=O)N[C@@H](CCCNC(=N)N)C(=O)N[C@@H](CO)C(=O)NCC(=O)NCC(=O)N[C@H](C(=O)N[C@H](C(=O)N[C@@H](CCCCN)C(=O)N[C@@H](CC(N)=O)C(=O)N[C@@H](CC(N)=O)C(=O)N[C@@H](Cc1ccccc1)C(=O)N[C@H](C(=O)N1CCC[C@H]1C(=O)N[C@H](C(=O)N[C@@H](CC(N)=O)C(=O)N[C@H](C(=O)NCC(=O)N[C@@H](CO)C(=O)N[C@@H](CCCCN)C(=O)N[C@@H](C)C(=O)N[C@@H](Cc1ccccc1)C(N)=O)C(C)C)[C@@H](C)O)C(C)C)C(C)C)C(C)C)[C@@H](C)O)C(C)C` [compound 707] yielded a Ki of 20.8 nM.
`CC(C)C[C@H](NC(=O)CNC(=O)[C@H](C)NC(=O)[C@H](CC(C)C)NC(=O)[C@H](CCCNC(=N)N)NC(=O)[C@H](Cc1c[nH]cn1)NC(=O)[C@@H](NC(=O)[C@@H](NC(=O)[C@H](CO)NC(=O)[C@@H](NC(=O)[C@H](C)NC(=O)[C@@H](NC(=O)[C@H](CC(=O)O)NC(=O)[C@H](CO)NC(=O)[C@H](C)N)[C@@H](C)O)[C@@H](C)O)C(C)C)[C@@H](C)O)C(=O)N[C@@H](CC(C)C)C(=O)N[C@@H](CO)C(=O)N[C@@H](CCCNC(=N)N)C(=O)N[C@@H](CO)C(=O)NCC(=O)NCC(=O)N[C@H](C(=O)N[C@H](C(=O)N[C@@H](CCCCN)C(=O)N[C@@H](CC(N)=O)C(=O)N[C@@H](CC(N)=O)C(=O)N[C@@H](Cc1ccccc1)C(=O)N[C@H](C(=O)N1CCC[C@H]1C(=O)N[C@H](C(=O)N[C@@H](CC(N)=O)C(=O)N[C@H](C(=O)NCC(=O)N[C@@H](CO)C(=O)N[C@@H](CCCCN)C(=O)N[C@@H](C)C(=O)N[C@@H](Cc1ccccc1)C(N)=O)C(C)C)[C@@H](C)O)C(C)C)C(C)C)C(C)C` [compound 709] was tested, and the Ki was 12 nM.
For `CC(C)[C@H](NC(=O)[C@@H](N)Cc1ccccc1)C(=O)N1CCC[C@H]1C(=O)N[C@H](C(=O)N[C@@H](CC(=O)O)C(=O)N[C@@H](C(=O)NCC(=O)N1CCC[C@H]1C(=O)N[C@@H](Cc1ccccc1)C(=O)N[C@@H](C)C(=O)N[C@@H](Cc1ccccc1)C(N)=O)C(C)C)[C@@H](C)O` [compound 711], the Ki was > 1000 nM.
For `CC(C)[C@H](NC(=O)[C@H](CC(=O)O)NC(=O)[C@@H](NC(=O)[C@@H]1CCCN1C(=O)[C@@H](NC(=O)[C@@H](N)Cc1ccccc1)C(C)C)[C@@H](C)O)C(=O)NCC(=O)N1CCC[C@H]1C(=O)N[C@H](Cc1ccccc1)C(=O)N[C@@H](C)C(=O)N[C@@H](Cc1ccccc1)C(N)=O` [compound 712], the Ki was > 1000 nM.
`CC(C)[C@H](NC(=O)[C@H](CC(=O)O)NC(=O)[C@@H](NC(=O)[C@@H]1CCCN1C(=O)[C@@H](NC(=O)[C@@H](N)Cc1ccccc1)C(C)C)[C@@H](C)O)C(=O)NCC(=O)N1CCC[C@@H]1C(=O)N[C@@H](Cc1ccccc1)C(=O)N[C@@H](C)C(=O)N[C@@H](Cc1ccccc1)C(N)=O` [compound 713] was tested, and the Ki was > 1000 nM.
In the case of `CC(C)[C@H](NC(=O)[C@H](CC(=O)O)NC(=O)[C@@H](NC(=O)[C@@H]1CCCN1C(=O)[C@@H](NC(=O)[C@@H](N)Cc1ccccc1)C(C)C)[C@@H](C)O)C(=O)NCC(=O)N1CCC[C@H]1C(=O)N[C@@H](Cc1ccccc1)C(=O)N[C@H](C)C(=O)N[C@@H](Cc1ccccc1)C(N)=O` [compound 715], the Ki is reported as > 1000 nM.
With `CC(C)[C@H](NC(=O)[C@@H](CC(=O)O)NC(=O)[C@@H](NC(=O)[C@@H]1CCCN1C(=O)[C@@H](NC(=O)[C@@H](N)Cc1ccccc1)C(C)C)[C@@H](C)O)C(=O)NCC(=O)N1CCC[C@H]1C(=O)N[C@@H](Cc1ccccc1)C(=O)N[C@@H](C)C(=O)N[C@@H](Cc1ccccc1)C(N)=O` [compound 719] the Ki was > 1000 nM.
